Experimental data reported in patent publication US6426068B1, “Therapeutic uses of heterologous superoxide dismutase (HSD), and method for selecting said HSD” (Fractales Biotech, priority 1998, dated 2002).

B1: yeast Cu—SOD: yeast Cu—SOD (protein, UniProt P00445 2-154, looked up)
Superoxide dismutase [Cu-Zn]: VQAVAVLKGDAGVSGVVKFEQASESEPTTVSYEIAGNSPNAERGFHIHEFGDATNGCVSAGPHFNPFKKTHGAPTDEVRHVGDMGNVKTDENGVAKGSFKDSLIKLIGPTSVVGRSVVIHAGQDDLGKGDTEESLKTGNAGPRPACGVIGLTN
B2: Mn—SOD of E. coli: manganese SOD of E. coli (protein, UniProt P00448 2-206, looked up)
Superoxide dismutase [Mn]: SYTLPSLPYAYDALEPHFDKQTMEIHHTKHHQTYVNNANAALESLPEFANLPVEELITKLDQLPADKKTVLRNNAGGHANHSLFWKGLKKGTTLQGDLKAAIERDFGSVDNFKAEFEKAAASRFGSGWAWLVLKGDKLAVVSTANQDSPLMGEAISGASGFPIMGLDVWEHAYYLKFQNRRPDYIKEFWNVVNWDEAAARFAAKK

Legend:
human macrophages [1] = test: Apoptosis of human macrophages with β-amyloid or MPTP; format: cell-based; conditions: 10 μg/ml, 48 hours, FIGS. 12 and 13
human macrophages [2] = test: TNF-α production by human macrophages with β-amyloid or MPTP; conditions: 10 μg/ml, 48 hours, FIGS. 12 and 13
Method: The CLCs are isolated from 23 healthy individuals, under the same conditions as those set out above. The adherent cell populations are obtained by incubating the CLCs (1×10^7 cells/ml) either in Petri dishes (Nunc) or in 6-well culture plates (Nunc) for 30 min at 37° C. in an RPMI 1640 medium supplemented with foetal calf serum at 10% (v/v) . The monocytes are then recovered by scraping the plates after adding a cold solution of PBS containing 1 mM EDTA. Cell preparations which comprise more than 85% of viable macrophages are estimated by Trypan blue exclusion and staining with a nonspecific esterase.
The macrophages are cultured at a final concentration of 2×10^6 cells/ml in 12- or 24-well plastic culture plates (Nunc) and in an Iscove medium supplemented with 100 U/ml of penicillin, 100 μg/ml of streptomycin and 5% of foetal calf serum.
The cells are incubated for 48 hours at 37° C. in a humid atmosphere (100%) containing 95% air and 5% CO2, in the presence of absence of 10 μg/ml of β-amyloid or MPTP.
The cell supernatants are recovered for measuring the TNF and the nitrites, while apoptosis is evaluated directly on the cells.

Mn—SOD [3] = test: Endogenous SOD (dismutase) activity of U937 cells after exogenous SOD; format: cell-based, human; conditions: SOD 30 U/ml, FIG. 2
Method: U937 cells, untreated or treated with HIV-Tat protein, in the presence or absence of the abovementioned SODs, are lysed in a detergent buffer comprising: 10 mM Tris-HCl pH 7.4, 0.1% of SDS, 1% of Nonidet P-40, 10 μg/ml of leupeptin, 100 μg/ml of PMSF and 2 μg/ml of aprotinin, by heating at 85° C. for 5 min. The lysate is then briefly sonicated (3×30 sec).
The total superoxide dismutase activity is measured on the sonicated lysates obtained as described above by its capacity to inhibit the reduction of ferrocytochrome c by the superoxide radicals produced by the xanthin oxidase/xanthine system (McCord. J. M., 1969, J. Biol. Chem. 244, 6049). One unit of superoxide dismutase is defined as the amount which inhibits 50% of the reduction of cytochrome c at room temperature and at pH 7.8.

[4] = system: glutathione peroxidase (GPx), Mn—SOD, inducible NO synthase (iNOs); test: Immuno-redox activity of HSD1/anti-HSD1 immune complexes in U937 and U1 cells; conditions: noninfected U937 and U1 cells; HSD1 10 μg/ml (30 U/ml), anti-HSD1 antibodies 10 μg/ml; FIG. 16
Method: U937 cells which are chronically infected with HIV-1 (U1 cells), and which have a low p24 production level (<250 pg/10^5 cells/ml in a 3-day supernatant) are cultured in an RPMI medium supplemented with L-glutamine, penicillin, streptomycin and foetal calf serum at 10% (Gibco products). They are used for the production of p24, and to evaluate apoptosis.

Mn—SOD [5] = test: Endogenous SOD expression in U937 cells (SDS-PAGE / immunoblot); format: cell-based, human; conditions: HIV-Tat activated U937 cells (10 μg/ml Tat); SOD 30 U/ml, 24 hours; FIG. 1
[6] = system: glutathione peroxidase (Gpx); test: Glutathione peroxidase transcription in U937 cells (RT-PCR); conditions: FIG. 3
Method: The human promonocytic leukaemia cell line U937 is cultured at a final concentration of 2×10^5 cells/ml in an Iscove medium enriched with 100 U/ml of penicillin, 100 μg/ml of streptomycin and 5% of foetal calf serum, in the presence (activated) or absence (control) of 10 μg/ml of HIV-Tat protein.
After stimulation and treatment with various sources and concentrations of SOD, the U937 cells are harvested in a phosphate-buffered cold physiological saline, and counted. The total RNA is extracted by standard techniques (Chomczynski. P., 1987, Anal. Biochem. 162, 156), in 1 ml of TRIzol reagent (Life Technologies ≠15596), according to the manufacturer's instructions. After its extraction, the RNA is precipitated with isopropyl alcohol, and the pellets are washed in 70% ethanol and air dried. The dried pellets are resuspended in 50 μl of 0.5 mM EDTA, pH 8, and quantified by spectrophotometry. […]
The amplification program comprises: five cycles comprising 60 sec. at 92° C., 60 sec. at 58° C. and 60 sec. at 74° C., followed by 25 cycles comprising 30 sec. at 92° C., 60 sec. at 60° C. and 60 sec. at 74° C., and to finish, the temperature is kept at 74° C. for another 3 minutes. Positive PCR amplifications are then determined by an electrophoresis on 1.2% agarose gel in 0.5×TAE buffer. […]

[7] = system: inflammation induced with carrageenans; test: Rat model of inflammation induced with carrageenans; format: in vivo
[8] = system: inflammation induced with adriamycin; test: Rat model of inflammation induced with adriamycin; format: in vivo

Molecule | anti-inflammatory activity (rank order of SODs) [7] | anti-inflammatory activity (rank order of SODs) [8] | other results
CN1CC=C(c2ccccc2)CC1 [MPTP] | – | – | death of macrophages by apoptosis (human macrophages [1]): induce their death by apoptosis; production of TNF-α by macrophages (human macrophages [2]): stimulate the production of TNF-α
HSD1: bovine SOD (heterologous), Sigma, St Louis, Mo. | – | – | lifting of HIV-Tat protein-induced inhibition of Mn—SOD expression (endogenous SOD activity) (Mn—SOD [3]): can be lifted; expression of glutathione peroxidase (GPx), Mn—SOD and inducible NO synthase (iNOs) [4]: stimulate the expression
HuSOD: recombinant human Cu/Zn SOD, homologous comparator | – | – | Mn—SOD expression (Mn—SOD [5]): remains undetectable; lifting of HIV-Tat protein-induced inhibition of Mn—SOD expression (endogenous SOD activity) (Mn—SOD [3]): not lifted; Gpx transcription [6]: does not enable it
bovine Cu—SOD: Cu/Zn—SOD of bovine origin | Mn—SOD of E. coli>bovine Cu—SOD>human Cu—SOD>yeast Cu—SOD>plant Cu—SOD | bovine Cu—SOD>Mn—SOD of E. coli | –
human Cu—SOD: human Cu—SOD | Mn—SOD of E. coli>bovine Cu—SOD>human Cu—SOD>yeast Cu—SOD>plant Cu—SOD | – | –
rat Cu—SOD: rat (homologous) Cu—SOD | significant pro-inflammatory activity | totally inactive | –
β-amyloid | – | – | death of macrophages by apoptosis (human macrophages [1]): induce their death by apoptosis; production of TNF-α by macrophages (human macrophages [2]): stimulate the production of TNF-α
B1 | Mn—SOD of E. coli>bovine Cu—SOD>human Cu—SOD>yeast Cu—SOD>plant Cu—SOD | generates a pro-inflammatory response | –
B2 | Mn—SOD of E. coli>bovine Cu—SOD>human Cu—SOD>yeast Cu—SOD>plant Cu—SOD | bovine Cu—SOD>Mn—SOD of E. coli | –
